Laboratory results taken from ChEMBL document CHEMBL1201862, “PubChem BioAssay data set” (2004).
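1) Cells in 96-well plates. 2) Compound, 48 h, 5 concentrations. 3) Linear interpolation between surrounding doses. 4) Unreached endpoint = highest concentration. GI50: concentration for 50% inhibition of growth.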 Active and inactive are the calls of the source. No stated cut-off is given here; in the data, active = GI50 up to about 1.1 µM and inactive = higher.

Experiments:
Assay in all cases: DTP human tumour cell line panel, 48 h
IGROV-1 = test system: IGROV-1
NCI-H522 = test system: NCI-H522
DU-145 = test system: DU-145
SK-MEL-2 = test system: SK-MEL-2
MDA-N = test system: MDA-N
OVCAR-8 = test system: OVCAR-8
SF-268 = test system: SF-268
M14 = test system: M14
ACHN = test system: ACHN
OVCAR-3 = test system: OVCAR-3
786-0 = test system: 786-0
OVCAR-5 = test system: OVCAR-5
UO-31 = test system: UO-31
SN12C = test system: SN12C
SW-620 = test system: SW-620
Hs-578T = test system: Hs-578T
HCT-15 = test system: HCT-15
CAKI-1 = test system: CAKI-1
SK-OV-3 = test system: SK-OV-3
SF-539 = test system: SF-539
A498 = test system: A498
HT-29 = test system: HT-29
HOP-92 = test system: HOP-92
NCI-H226 = test system: NCI-H226
HCT-116 = test system: HCT-116
UACC-62 = test system: UACC-62
SF-295 = test system: SF-295
SNB-75 = test system: SNB-75
SR = test system: SR
SK-MEL-28 = test system: SK-MEL-28
U-251 = test system: U-251
RPMI-8226 = test system: RPMI-8226
MDA-MB-231 = test system: MDA-MB-231
EKVX = test system: EKVX
NCI-H23 = test system: NCI-H23
MDA-MB-435 = test system: MDA-MB-435
LOX IMVI = test system: LOX IMVI
NCI-H460 = test system: NCI-H460
TK-10 = test system: TK-10
SNB-19 = test system: SNB-19
KM12 = test system: KM12
K562 = test system: K562
CCRF-CEM = test system: CCRF-CEM
MOLT-4 = test system: MOLT-4
NCI/ADR-RES = test system: NCI/ADR-RES
SK-MEL-5 = test system: SK-MEL-5
MCF7 = test system: MCF7
RXF 393 = test system: RXF 393
Malme-3M = test system: Malme-3M
HCC 2998 = test system: HCC 2998
T47D = test system: T47D
PC-3 = test system: PC-3
UACC-257 = test system: UACC-257
COLO 205 = test system: COLO 205
HOP-62 = test system: HOP-62
OVCAR-4 = test system: OVCAR-4
A549 = test system: A549
HL-60 = test system: HL-60

C/C(=N/NC(=S)Nc1ccccc1Cl)c1cccc(/C(C)=N\NC(=S)Nc2ccccc2Cl)n1
GI50 (IGROV-1): 42.2 µM (inactive) | GI50 (NCI-H522): 46.7 µM (inactive) | GI50 (DU-145): > 100 µM (inactive) | GI50 (SK-MEL-2): > 100 µM (inactive) | GI50 (MDA-N): > 100 µM (inactive) | GI50 (OVCAR-8): 11.3 µM (inactive) | GI50 (SF-268): > 100 µM (inactive) | GI50 (M14): 22 µM (inactive) | GI50 (ACHN): 55.5 µM (inactive) | GI50 (OVCAR-3): 16.3 µM (inactive) | GI50 (786-0): 7.33 µM (inactive) | GI50 (OVCAR-5): > 100 µM (inactive) | GI50 (UO-31): 44 µM (inactive) | GI50 (SN12C): > 100 µM (inactive) | GI50 (SW-620): 11.1 µM (inactive) | GI50 (Hs-578T): > 100 µM (inactive) | GI50 (HCT-15): 15 µM | GI50 (CAKI-1): > 100 µM (inactive) | GI50 (SK-OV-3): > 100 µM (inactive) | GI50 (SF-539): 16.6 µM (inactive) | GI50 (A498): > 100 µM (inactive) | GI50 (HT-29): > 100 µM (inactive) | GI50 (HOP-92): > 100 µM (inactive) | GI50 (NCI-H226): > 100 µM (inactive) | GI50 (HCT-116): 16.1 µM (inactive) | GI50 (UACC-62): > 100 µM (inactive) | GI50 (SF-295): > 100 µM (inactive) | GI50 (SNB-75): > 100 µM (inactive) | GI50 (SR): 5.66 µM (inactive) | GI50 (SK-MEL-28): > 100 µM (inactive) | GI50 (U-251): 26.7 µM (inactive) | GI50 (RPMI-8226): > 100 µM (inactive) | GI50 (MDA-MB-231): 12.2 µM (inactive) | GI50 (EKVX): > 100 µM (inactive) | GI50 (NCI-H23): 54.7 µM (inactive) | GI50 (MDA-MB-435): > 100 µM (inactive) | GI50 (LOX IMVI): 61.8 µM (inactive) | GI50 (NCI-H460): 5.47 µM (inactive) | GI50 (TK-10): 49.1 µM (inactive) | GI50 (SNB-19): 82.4 µM (inactive) | GI50 (KM12): 7.24 µM (inactive) | GI50 (K562): 18.7 µM (inactive) | GI50 (CCRF-CEM): 9.79 µM (inactive) | GI50 (MOLT-4): 23.6 µM (inactive) | GI50 (NCI/ADR-RES): > 100 µM (inactive) | GI50 (SK-MEL-5): 12.4 µM (inactive) | GI50 (MCF7): 15.1 µM (inactive) | GI50 (RXF 393): > 100 µM (inactive) | GI50 (Malme-3M): 35.8 µM (inactive) | GI50 (HCC 2998): > 100 µM (inactive) | GI50 (T47D): > 100 µM (inactive) | GI50 (PC-3): 36.1 µM (inactive) | GI50 (UACC-257): 67 µM (inactive) | GI50 (COLO 205): 56.8 µM (inactive) | GI50 (HOP-62): > 100 µM (inactive) | GI50 (OVCAR-4): 28.4 µM (inactive) | GI50 (A549): 29.6 µM (inactive) | GI50 (HL-60): > 100 µM (inactive)

Cn1c2ccccc2c(=O)c2c(O)cc3c(c21)C1OCC(C)(O)C1O3 (configuration not stated)
GI50 (IGROV-1): 25.3 µM (inactive) | GI50 (DU-145): 29.2 µM (inactive) | GI50 (SK-MEL-2): 28.3 µM (inactive) | GI50 (MDA-N): > 100 µM (inactive) | GI50 (OVCAR-8): 34 µM (inactive) | GI50 (SF-268): 26.6 µM (inactive) | GI50 (M14): > 100 µM (inactive) | GI50 (ACHN): 67.8 µM (inactive) | GI50 (786-0): 39.2 µM (inactive) | GI50 (OVCAR-5): 19.5 µM (inactive) | GI50 (UO-31): 5.4 µM (inactive) | GI50 (SN12C): 58.2 µM (inactive) | GI50 (SW-620): 80 µM (inactive) | GI50 (Hs-578T): 6.47 µM (inactive) | GI50 (HCT-15): 53.3 µM | GI50 (CAKI-1): 30.7 µM (inactive) | GI50 (SK-OV-3): 37.2 µM (inactive) | GI50 (SF-539): 21.6 µM (inactive) | GI50 (HT-29): 31.8 µM (inactive) | GI50 (NCI-H226): 10.5 µM (inactive) | GI50 (HCT-116): 37.8 µM (inactive) | GI50 (UACC-62): > 10 µM (inactive) | GI50 (SNB-75): 22.9 µM (inactive) | GI50 (SR): 46.7 µM (inactive) | GI50 (SK-MEL-28): 83.9 µM (inactive) | GI50 (U-251): 21.4 µM (inactive) | GI50 (RPMI-8226): 85.7 µM (inactive) | GI50 (MDA-MB-231): > 100 µM (inactive) | GI50 (EKVX): 7.48 µM (inactive) | GI50 (MDA-MB-435): > 100 µM (inactive) | GI50 (NCI-H460): > 10 µM (inactive) | GI50 (TK-10): 82 µM (inactive) | GI50 (SNB-19): 26.6 µM (inactive) | GI50 (K562): 53.3 µM (inactive) | GI50 (CCRF-CEM): 23.8 µM (inactive) | GI50 (MOLT-4): 28.2 µM (inactive) | GI50 (NCI/ADR-RES): 42.9 µM (inactive) | GI50 (SK-MEL-5): 50.2 µM (inactive) | GI50 (MCF7): 51.5 µM (inactive) | GI50 (RXF 393): 22.5 µM (inactive) | GI50 (HCC 2998): > 100 µM (inactive) | GI50 (T47D): 42.7 µM (inactive) | GI50 (PC-3): 44.7 µM (inactive) | GI50 (UACC-257): > 100 µM (inactive) | GI50 (COLO 205): 51.1 µM (inactive) | GI50 (HOP-62): 23.6 µM (inactive) | GI50 (OVCAR-4): > 100 µM (inactive) | GI50 (A549): 61.8 µM (inactive) | GI50 (HL-60): 81.5 µM (inactive)

COC1(OC)c2no[n+]([O-])c2C(OC)(OC)c2c1no[n+]2[O-]
GI50 (IGROV-1): 21.7 µM (inactive) | GI50 (NCI-H522): 21.7 µM (inactive) | GI50 (DU-145): 28.3 µM (inactive) | GI50 (SK-MEL-2): 21.1 µM (inactive) | GI50 (MDA-N): 19.6 µM (inactive) | GI50 (OVCAR-8): 13.4 µM (inactive) | GI50 (SF-268): 25.7 µM (inactive) | GI50 (M14): 12.3 µM (inactive) | GI50 (ACHN): 19.5 µM (inactive) | GI50 (OVCAR-3): 7.85 µM (inactive) | GI50 (786-0): 18.5 µM (inactive) | GI50 (OVCAR-5): 21.3 µM (inactive) | GI50 (UO-31): 28.2 µM (inactive) | GI50 (SN12C): 20.4 µM (inactive) | GI50 (SW-620): 17.9 µM (inactive) | GI50 (Hs-578T): 31.4 µM (inactive) | GI50 (HCT-15): 22 µM | GI50 (CAKI-1): 37.8 µM (inactive) | GI50 (SF-539): 18.3 µM (inactive) | GI50 (A498): 19.1 µM (inactive) | GI50 (HT-29): 17.3 µM (inactive) | GI50 (NCI-H226): 24.5 µM (inactive) | GI50 (HCT-116): 11.1 µM (inactive) | GI50 (UACC-62): 11.2 µM (inactive) | GI50 (SF-295): 35.7 µM (inactive) | GI50 (SNB-75): 18.3 µM (inactive) | GI50 (SR): 4.38 µM (inactive) | GI50 (SK-MEL-28): 15.7 µM (inactive) | GI50 (RPMI-8226): 35.6 µM (inactive) | GI50 (MDA-MB-231): 16.4 µM (inactive) | GI50 (EKVX): 14.7 µM (inactive) | GI50 (NCI-H23): 11.4 µM (inactive) | GI50 (MDA-MB-435): 17.3 µM (inactive) | GI50 (LOX IMVI): 14.9 µM (inactive) | GI50 (NCI-H460): 26.7 µM (inactive) | GI50 (TK-10): 16.1 µM (inactive) | GI50 (SNB-19): 24.5 µM (inactive) | GI50 (KM12): 11.7 µM (inactive) | GI50 (K562): 38.9 µM (inactive) | GI50 (CCRF-CEM): 4.19 µM (inactive) | GI50 (MOLT-4): 12.4 µM (inactive) | GI50 (NCI/ADR-RES): 26.6 µM (inactive) | GI50 (SK-MEL-5): 14.9 µM (inactive) | GI50 (MCF7): 14.1 µM (inactive) | GI50 (RXF 393): 26.1 µM (inactive) | GI50 (Malme-3M): 14.4 µM (inactive) | GI50 (HCC 2998): 21 µM (inactive) | GI50 (T47D): 21.8 µM (inactive) | GI50 (PC-3): 25.3 µM (inactive) | GI50 (UACC-257): 12.5 µM (inactive) | GI50 (COLO 205): 12.9 µM (inactive) | GI50 (HOP-62): 18.4 µM (inactive) | GI50 (OVCAR-4): 21.9 µM (inactive) | GI50 (A549): 23.6 µM (inactive) | GI50 (HL-60): 37.3 µM (inactive)
